In US7511145B2 (Genelabs Technologies, Inc., priority 2003, dated 2009):

Biological target: T1, HCV-NS5b (Hepatitis C virus genotype 1b, UniProt Q9WMX2)
T1 construct: (His)6 (C); made in house; host or cells: XL-1 cells (E. coli), IPTG-inducible plasmid, nickel-NTA purification
Test: HCV-NS5b enzyme assay (incorporation of radiolabeled UTP)
Format: biochemical
Conditions: for inhibition at 100 µM: read-out: % inh@100, enzyme inhibition at compound concentration of 100 uM
Text: The coding sequence of NS5b protein was cloned by PCR from pFKI389luc/NS3-3′/ET as described by Lohmann, V., et al. (1999) Science 285, 110-113 using the following primers: […]
The cloned fragment was missing the C terminus 21 amino acid residues. The cloned fragment was inserted into an IPTG-inducible expression plasmid that provided an epitope tag (His)6 at the carboxy terminus of the protein.
The recombinant enzyme was expressed in XL-1 cells and after induction of expression, the protein was purified using affinity chromatography on a nickel-NTA column. Storage condition was 10 mM Tris-HCl pH 7.5, 50 mM NaCl, 0.1 mM EDTA, 1 mM DTT, 20% glycerol at −20° C.
The polymerase activity was assayed by measuring incorporation of radiolabeled UTP into a RNA product using a biotinylated, heteropolymeric template, which included a portion of the HCV genome. Typically, the assay mixture (50 μL) contained 10 mM Tris-HCl (pH 7.5), 5 mM MgCl2, 0.2 mM EDTA, 10 mM KCl, 1 unit/μL RNAsin, 1 mM DTT, 10 μM each of NTP, including [^3H]-UTP, and 10 ng/μL heteropolymeric template. Test compounds were initially dissolved in 100% DMSO and further diluted in aqueous buffer containing 5% DMSO. Typically, compounds were tested at concentrations between 1 nM and 100 μM. Reactions were started with addition of enzyme and allowed to continue at 37° C. for 2 hours. Reactions were quenched with 8 μL of 100 mM EDTA and reaction mixtures (30 μL) were transferred to streptavidin-coated scintillation proximity microtiter plates (FlashPlates) and incubated at 4° C. overnight. Incorporation of radioactivity was determined by scintillation counting.
Shown in Table IX below are the values for enzyme inhibition measured at compound concentrations of 100 and 33 uM, (% inh@[…] and % inh@33, respectively). The percent inhibition values are calculated from the differential incorporation of radioactivity compared to a control reaction without compound: % inhibition=100−[(CountsINH−CountsBKG)/CountsCTRL−CountsBKG)×100 where CountsINH is the signal of the testwell with inhibitor, CountsBKG is the background signal and CountsCTRL is the signal of a testwell without inhibitor.

[1] = enzyme inhibition at compound concentration of 33 uM

| SMILES | inhibition at 33 µM [1] [%] | inhibition at 100 µM [%] | % inh@33 (enzyme inhibition at compound concentration of 33 uM, 33 µM) [%] | % inh@100 (enzyme inhibition at compound concentration of 100 uM, 100 µM) [%] |
| --- | --- | --- | --- | --- |
| O=C(O)c1ccc2c(c1)nc(-c1ccc3nc(-c4cccnc4)ccc3c1)n2C1CCCCC1 [Compound 355, 1-cyclohexyl-2-(2-pyridin-3-yl-quinolin-6-yl)-1H-benzoimidazole-5-carboxylic acid] | 72.3 | 89.3 |  |  |
| CC(C)N(C(=O)c1ccc2cc(-c3nc4cc(C(=O)O)ccc4n3C3CCCCC3)ccc2n1)c1ccc(Cl)cc1 [Compound 550, 2-{2-[(4-Chlorophenyl)isopropylcarbamoyl]quinolin-6-yl}-1-cyclohexyl-1H-benzimidazole-5-carboxylic acid] | 99.1 | 102 |  |  |
| COc1ccc(-c2ccc(C(F)(F)F)cc2)c(-c2ccc3cc(-c4nc5cc(C(=O)O)ccc5n4C4CCCCC4)ccc3n2)c1 [Compound 436, 1-cyclohexyl-2-[2-(4-methoxy-4′-trifluoromethyl-biphen-2-yl)-quinolin-6-yl]-1H-benzoimidazole-5-carboxylic acid] | 98.8 | 99.3 |  |  |
| O=C(O)c1ccc2c(c1)nc(-c1ccc3nc(-c4cc(OCCCN5CCCC5)ccc4-c4ccccc4)ccc3c1)n2C1CCCCC1 [Compound 430, 1-Cyclohexyl-2-{2-[4-(3-pyrrolidin-1-yl-propoxy)-biphen-2-yl]-quinolin-6-yl}-1H-benzoimidazole-5-carboxylic acid] | 98 | 96.7 |  |  |
| O=C(O)c1ccc2c(c1)nc(-c1ccc3nc(-c4ccc(N5CCNCC5)cc4)ccc3c1)n2C1CCCCC1 [Compound 488, 1-cyclohexyl-2-[2-(4-piperazin-1-yl-phenyl)-quinolin-6-yl]-1H-benzoimidazole-5-carboxylic acid] | 91.8 | 97.2 |  |  |
| COc1ccc(-c2ccc(Cl)cc2)c(-c2ccc3cc(-c4nc5cc(C(=O)O)ccc5n4C4CCC(C)CC4)ccc3n2)c1 (stereo not drawn) [Compound 547, 2-[2-(4′-chloro-4-methoxy-biphen-2-yl)-quinolin-6-yl]-1-(4-methyl-cyclohexyl)-1H-benzoimidazole-5-carboxylic acid] |  |  | 102.71 | 101.82 |
| O=C(O)c1ccc2c(c1)nc(-c1ccc3nc(-c4ccc5c(c4)CCCC5)ccc3c1)n2C1CCCCC1 [Compound 459, 1-cyclohexyl-2-[2-(5,6,7,8-tetrahydro-naphthalen-2-yl)-quinolin-6-yl]-1H-benzoimidazole-5-carboxylic acid] | 99.5 | 99.8 |  |  |
| O=C(O)c1cnc2c(c1)nc(-c1ccc3nc(-c4ccccc4Br)ccc3c1)n2C1CCCCC1 [Compound 477, 2-[2-(2-bromo-phenyl)-quinolin-6-yl]-3-cyclohexyl-3H-imidazo[4,5-b]pyridine-6-carboxylic acid] | 92.4 | 95.9 |  |  |
| O=C(O)c1ccc2c(c1)nc(-c1ccc3nc(-c4c(O)ccc5ccccc45)ccc3c1)n2C1CCCCC1 [Compound 460, 1-cyclohexyl-2-[2-(2-hydroxy-naphthalen-1-yl)-quinolin-6-yl]-1H-benzoimidazole-5-carboxylic acid] | 101 | 102 |  |  |
| NC(=O)[C@H](CO)NC(=O)c1ccc2cc(-c3nc4cc(C(=O)O)ccc4n3C3CCCCC3)ccc2n1 [Compound 385, 2-[2-(1-Carbamoyl-2-hydroxyethylcarbamoyl)quinolin-6-yl]-1-cyclohexyl-1H-benzimidazole-5-carboxylic acid] | 42.6 | 76.2 |  |  |
| O=C(O)c1ccc2c(c1)nc(-c1ccc3nc(-c4ccccc4Br)ccc3c1)n2C1CCCCC1 [Compound 352, 2-[2-(2-bromo-phenyl)-quinolin-6-yl]-1-cyclohexyl-1H-benzoimidazole-5-carboxylic acid] | 94.2 | 98.8 |  |  |
| O=C(O)c1ccc2c(c1)nc(-c1cc3ccc(-c4ccccc4-c4ccc(Cl)cc4)nc3cc1F)n2C1CCCCC1 [Compound 408, 2-[2-(4′-Chloro-biphen-2-yl)-7-fluoro-quinolin-6-yl]-1-cyclohexyl-1H-benzoimidazole-5-carboxylic acid] | 99.3 | 98.9 |  |  |
| CCn1c(-c2ccc3nc(-c4cc(OC)ccc4-c4ccc(Cl)cc4)ccc3c2)nc2cc(C(=O)O)ccc21 [Compound 534, 2-[2-(4′-chloro-4-methoxy-biphen-2-yl)-quinolin-6-yl]-1-ethyl-1H-benzoimidazole-5-carboxylic acid] | 90.1 | 101 |  |  |
| CC[C@H](C)[C@H](NC(=O)c1ccc2c(c1)nc(-c1ccc3nc(-c4ccccc4)cnc3c1)n2C1CCCCC1)C(=O)O [Compound 249, 2-{[1-Cyclohexyl-2-(2-phenyl-quinoxalin-6-yl)-1H-benzoimidazole-5-carbonyl]-amino}-3-methyl-pentanoic acid] | 94.5 | 97.2 |  |  |
| O=C(O)c1ccc2c(c1)nc(-c1ccc3nc(-c4cc(F)ccc4-c4ccc(Cl)cc4)ccc3c1)n2C1CCCCC1 [Compound 563, 2-[2-(4′-Chloro-4-fluoro-biphen-2-yl)-quinolin-6-yl]-1-cyclohexyl-1H-benzoimidazole-5-carboxylic acid] | 101 | 101 |  |  |
| COc1ccc(-c2ccco2)c(-c2ccc3cc(-c4nc5cc(C(=O)O)ccc5n4C4CCCCC4)ccc3n2)c1 [Compound 454, 1-cyclohexyl-2-[2-(2-furan-2-yl-5-methoxy-phenyl)-quinolin-6-yl]-1H-benzoimidazole-5-carboxylic acid] | 98.3 | 101 |  |  |
| O=C(O)c1ccc2c(c1)nc(-c1ccc3nc(-c4cccc(C(=O)N5CCCC5)c4)ccc3c1)n2C1CCCCC1 [Compound 370, 1-Cyclohexyl-2-{2-[3-(pyrrolidine-1-carbonyl)-phenyl]-quinolin-6-yl}-1H-benzoimidazole-5-carboxylic acid] | 97.8 | 99.7 |  |  |
| CN1CCN(C(=O)c2ccc3c(c2)nc(-c2cc4ccc(-c5ccccc5-c5ccccc5)nc4cc2F)n3C2CCCCC2)CC1 [Compound 522, [2-(2-Biphen-2-yl-7-fluoro-quinolin-6-yl)-1-cyclohexyl-1H-benzoimidazol-5-yl]-(4-methyl-piperazin-1-yl)-methanone] | 76.7 | 74.2 |  |  |
| O=C(O)c1cnc2c(c1)nc(-c1ccc3nc(-c4ccccc4-c4ccc(Cl)cc4)ccc3c1)n2C1CCCCC1 [Compound 490, 2-[2-(4′-chloro-biphen-2-yl)-quinolin-6-yl]-3-cyclohexyl-3H-imidazo[4,5-b]pyridine-6-carboxylic acid] | 95.9 | 94.3 |  |  |
| O=C(O)c1ccc2c(c1)nc(-c1ccc3nc(-c4cccc(OCC(=O)N5CCCC5)c4)ccc3c1)n2C1CCCCC1 [Compound 503, 1-cyclohexyl-2-{2-[3-(2-oxo-2-pyrrolidin-1-yl-ethoxy)-phenyl]-quinolin-6-yl}-1H-benzoimidazole-5-carboxylic acid] | 95.8 | 97 |  |  |
| CCc1ccc(-c2ccc(OC)cc2-c2ccc3cc(-c4nc5cc(C(=O)O)ccc5n4C4CCCCC4)ccc3n2)cc1 [Compound 557, 1-Cyclohexyl-2-[2-(4′-ethyl-4-methoxy-biphen-2-yl)-quinolin-6-yl]-1H-benzoimidazole-5-carboxylic acid] | 103 | 101 |  |  |
| COc1ccc(-c2ccc(Cl)cc2)c(-c2ccc3cc(-c4nc5cc(C(=O)O)ccc5n4C4CC4)ccc3n2)c1 [Compound 528, 2-[2-(4′-chloro-4-methoxy-biphen-2-yl)-quinolin-6-yl]-1-cyclopropyl-1H-benzoimidazole-5-carboxylic acid] | 100 | 101 |  |  |
| O=C(N[C@@H](Cc1c[nH]c2ccc(O)cc12)C(=O)O)c1ccc2c(c1)nc(-c1ccc3nc(-c4cc(C(=O)N5CCCC5)ccc4-c4ccc(Cl)cc4)ccc3c1)n2C1CCCCC1 [Compound 235, 2-[(2-{2-[4′-Chloro-4-(pyrrolidine-1-carbonyl)-biphen-2-yl]-quinolin-6-yl}-1-cyclohexyl-1H-benzoimidazole-5-carbonyl)-amino]-3-(5-hydroxy-1H-indol-3-yl)-propionic acid] | 99.1 | 99.5 |  |  |
| O=C(O)c1ccc2c(c1)nc(-c1ccc3nc(-c4ccccc4)cc(Sc4ccccc4)c3c1)n2C1CCCCC1 [Compound 467, 1-Cyclohexyl-2-(2-phenyl-4-phenylsulfanyl-quinolin-6-yl)-1H-benzoimidazole-5-carboxylic acid] | 96.3 | 100 |  |  |
